Measurements taken from patent US4405608A, “Novel peptide” (Novo Industri A/S, priority 1981, dated 1983).
No end group written: not given here.

Assay: Toxicology: repeated subcutaneous administration to cats
Format: in vivo
Settings: repeated s.c. administration of increasing doses up to 16 μg/kg body weight

With RSLQNTEEKSRSFPAPQTDPLDDPDQMTED [GRPP] the adverse effects was “did not cause any adverse effects”.
